What all share (assay type): biochemical
In one experiment the test system is VIM-5. The experiment in a line: VIM-5 inhibition assay (FC5 fluorogenic substrate). Conditions: @ 100 μM; mean ± SD (n = 3). As for the experimental part: (§1) Then, we tested all the target compounds against other B1 MBL enzymes, including NDM-1, IMP-1, VIM-1, and VIM-5 (Table 1); all the assay conditions (including enzyme/substrate concentrations) are the same as that previously used. […]. […].
(§2) All the target compounds were freshly prepared in 100 mM DMSO stock solutions. All the MBL and SBL enzymes used in this study were obtained from our collaborator, Li’s Laboratory in Sichuan University. Each compound was initially evaluated for inhibitory activity to MBL and SBL enzymes at 100 and 10 μM, by preincubation with the appropriate amount of enzymes in the assay buffer for 10 min, followed by adding the substrate FC5 to initiate the reactions, and monitoring the fluorescence at λex of 380 nm and λem of 460 nm. The IC50 values for the compounds (with 10 different concentrations in threefold dilution) were further determined. All determinations were tested in triplicate. The IC50 values were obtained from the plot of activity versus inhibitor concentration by using the GraphPad Prism software.

The target of the next experiment is T1, NDM-1 (Klebsiella pneumoniae, UniProt C7C422).
T1 construct: Li's Laboratory, Sichuan University (collaborator, a gift and not a purchase)
Kind of experiment: NDM-1 inhibition assay (FC5 fluorogenic substrate). The following applies: mean ± SD (n = 3). On the procedure:
as §1, §2

In a further experiment the target is T2, VIM-2 (Escherichia coli, UniProt Q5U7L7).
T2 construct: Li's Laboratory, Sichuan University (collaborator, a gift and not a purchase)
The experiment in a line: VIM-2 inhibition assay (FC5 fluorogenic substrate). Conditions: for IC50: 10 concentrations in threefold dilution, triplicate, read-out: IC50 against VIM-2; for inhibition at 10 µM / inhibition at 100 µM: mean ± SD (n = 3). On the procedure:
as §2

A further experiment addresses T3, VIM-1 (Pseudomonas aeruginosa, UniProt A0A0F7KYQ8).
T3 construct: Li's Laboratory, Sichuan University (collaborator, a gift and not a purchase)
Kind of experiment: VIM-1 inhibition assay (FC5 fluorogenic substrate). Conditions: for inhibition at 100 µM: mean ± SD (n = 3). On the procedure:
as §1, §2

The target in another experiment is T4, IMP-1 (Serratia marcescens, UniProt P52699).
T4 construct: Li's Laboratory, Sichuan University (collaborator, a gift and not a purchase)
Kind of experiment: IMP-1 inhibition assay (FC5 fluorogenic substrate). The following applies: for inhibition at 10 µM / inhibition at 100 µM: mean ± SD (n = 3). As for the experimental part:
as §1, §2

One may read the inhibition as the change of the read-out against control, counted positive when it falls. What is called IC50 is the midpoint of a concentration-inhibition curve.

Each structure is given as a SMILES string.

T1 sequence (C7C422 29-270, looked up, species assumed): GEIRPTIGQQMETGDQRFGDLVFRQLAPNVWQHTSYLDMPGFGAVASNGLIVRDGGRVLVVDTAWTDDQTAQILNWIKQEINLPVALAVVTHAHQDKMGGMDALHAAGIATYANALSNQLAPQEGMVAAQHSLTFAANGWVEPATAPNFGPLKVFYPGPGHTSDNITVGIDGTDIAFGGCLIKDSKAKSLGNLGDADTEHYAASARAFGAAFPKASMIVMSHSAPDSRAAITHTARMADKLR
T4 sequence (P52699 19-246 limits assumed): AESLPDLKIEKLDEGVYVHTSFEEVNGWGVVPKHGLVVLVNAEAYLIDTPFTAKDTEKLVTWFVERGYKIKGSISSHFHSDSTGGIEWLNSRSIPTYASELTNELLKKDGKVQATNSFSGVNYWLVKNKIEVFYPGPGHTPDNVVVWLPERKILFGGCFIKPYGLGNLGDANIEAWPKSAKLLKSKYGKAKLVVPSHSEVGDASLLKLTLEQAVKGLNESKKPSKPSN

With `c1ccc(-c2nnc3n2CCCS3)cc1` [5a, 3-Phenyl-6,7-dihydro-5H-[1,2,4]triazolo[3,4-b][1,3]thiazine], the “Inhibition % VIM-5” value with VIM-5 was 1 ± 1/– %. The inhibition at 10 µM against NDM-1 was 3%; at VIM-2, 17%. The inhibition at 100 µM against NDM-1 is 29 ± 1%; at VIM-2, roughly 50%; against VIM-1, 29 ± 2%. Besides, the IC50 at VIM-2 was roughly 179 µM.

On to `Cc1ccccc1-c1nnc2n1CCCS2` [5b, 3-(O-Tolyl)-6,7-dihydro-5H-[1,2,4]triazolo[3,4-b][1,3]thiazine], for which the inhibition at 10 µM was 21% against IMP-1, 27% at NDM-1 and 34% against VIM-2. The inhibition at 100 µM at IMP-1 worked out at 25 ± 1%; against NDM-1, 32 ± 4%; against VIM-2 it was 45 ± 5%; on VIM-1, 21 ± 3%. Besides, in the experiment on VIM-5, the “Inhibition % VIM-5” value was 12 ± 2/– %.

As for `Brc1ccccc1-c1nnc2n1CCCS2` [5c, 3-(2-Bromophenyl)-6,7-dihydro-5H-[1,2,4]triazolo[3,4-b][1,3]thiazine], the inhibition at 10 µM against IMP-1 is 16%; against NDM-1, 17%; against VIM-2 it was 26%. The inhibition at 100 µM was determined as 15 ± 1% against IMP-1, 8 ± 1% against NDM-1, 43 ± 5% against VIM-2 and 19 ± 2% against VIM-1. For the same compound, the “Inhibition % VIM-5” value in the experiment on VIM-5 is reported as 13 ± 2/– %.

Turning to `COc1ccccc1-c1nnc2n1CCCS2` [5d, 3-(2-Methoxyphenyl)-6,7-dihydro-5H-[1,2,4]triazolo[3,4-b][1,3]thiazine], in the experiment on VIM-5, the “Inhibition % VIM-5” value is 7 ± 1/– %. Moreover, the inhibition at 10 µM is 6% on NDM-1 and 16% on VIM-2. In addition, the inhibition at 100 µM against NDM-1 is 15 ± 1%; at VIM-2, 39 ± 3%; against VIM-1, 27 ± 2%.

`Fc1cccc(-c2nnc3n2CCCS3)c1` [5e, 3-(3-Fluorophenyl)-6,7-dihydro-5H-[1,2,4]triazolo[3,4-b][1,3]thiazine]: the inhibition at 10 µM against IMP-1 is 4%; on NDM-1, 20%; against VIM-2 it was 15%. For the same compound, the inhibition at 100 µM on IMP-1 stood at 8 ± 1%; against NDM-1, 10 ± 2%; against VIM-2, 34 ± 3%; at VIM-1 it was 22 ± 3%. In addition, the “Inhibition % VIM-5” value in the experiment on VIM-5 is given as 6 ± 1/– %.

As for `Clc1cccc(-c2nnc3n2CCCS3)c1` [5f, 3-(3-Chlorophenyl)-6,7-dihydro-5H-[1,2,4]triazolo[3,4-b][1,3]thiazine], in the experiment with VIM-5, the “Inhibition % VIM-5” value was −9 ± 2/– %. The inhibition at 10 µM against NDM-1 was 22%; at VIM-2, 16%. Also, the inhibition at 100 µM on NDM-1 came to 17 ± 1%; on VIM-2 it was 42 ± 2%; at VIM-1 it was 32 ± 1%.

For the compound `Ic1cccc(-c2nnc3n2CCCS3)c1` [5h, 3-(3-Iodophenyl)-6,7-dihydro-5H-[1,2,4]triazolo[3,4-b][1,3]thiazine], in the experiment with VIM-5, the “Inhibition % VIM-5” value is on record as −5 ± 2/– %. For the same compound, the inhibition at 10 µM against NDM-1 is 10%; against VIM-2, 7%. The inhibition at 100 µM on NDM-1 was 9 ± 1%; at VIM-2, 33 ± 2%; against VIM-1, 27 ± 3%.

In the case of `FC(F)(F)c1cccc(-c2nnc3n2CCCS3)c1` [5i, 3-(3-(Trifluoromethyl)phenyl)-6,7-dihydro-5H-[1,2,4]triazolo[3,4-b][1,3]thiazine], the values for the inhibition at 10 µM against IMP-1, on NDM-1 and against VIM-2 were 11%, 9% and 35%, respectively. The inhibition at 100 µM on IMP-1 is 12 ± 1%; at NDM-1 it was 26 ± 1%; against VIM-2, 52 ± 4%; on VIM-1, 29 ± 3%. For the same compound, the “Inhibition % VIM-5” value in the experiment with VIM-5 is 21 ± 2/– %. Further, the IC50 at VIM-2 is greater than 100 µM.

As for `Fc1ccc(-c2nnc3n2CCCS3)cc1` [5j, 3-(4-Fluorophenyl)-6,7-dihydro-5H-[1,2,4]triazolo[3,4-b][1,3]thiazine], the inhibition at 10 µM against IMP-1 was 13%; on NDM-1, 23 ± 2%; against VIM-2, 32%. The inhibition at 100 µM on IMP-1 came to 8 ± 1%; against NDM-1 it was 23 ± 2%; on VIM-2 it was 34 ± 3%; against VIM-1 it was 27 ± 1%. For the same compound, in the experiment with VIM-5, the “Inhibition % VIM-5” value was 14 ± 1/– %.

For `Clc1ccc(-c2nnc3n2CCCS3)cc1` [5k, 3-(4-Chlorophenyl)-6,7-dihydro-5H-[1,2,4]triazolo[3,4-b][1,3]thiazine], the inhibition at 10 µM against IMP-1 was 5%; on NDM-1, 17%; against VIM-2, 58%. Also, the inhibition at 100 µM worked out at 7 ± 1% at IMP-1, 14 ± 1% against NDM-1, 84 ± 6% on VIM-2 and 28 ± 2% against VIM-1. Besides, the “Inhibition % VIM-5” value in the experiment with VIM-5 is 12 ± 1/– %. Moreover, the IC50 at VIM-2 worked out at 47.2 µM.

For `Ic1ccc(-c2nnc3n2CCCS3)cc1` [5m, 3-(4-Iodophenyl)-6,7-dihydro-5H-[1,2,4]triazolo[3,4-b][1,3]thiazine], in the experiment with VIM-5, the “Inhibition % VIM-5” value was 2 ± 1/– %. Besides, the inhibition at 10 µM at NDM-1 was 4%; on VIM-2, 44%. The inhibition at 100 µM on NDM-1 was 1 ± 1%; against VIM-2 it was 78 ± 5%; at VIM-1 it was 34 ± 1%. Further, the IC50 at VIM-2 is greater than 100 µM.

For the compound `FC(F)(F)c1ccc(-c2nnc3n2CCCS3)cc1` [5n, 3-(4-(Trifluoromethyl)phenyl)-6,7-dihydro-5H-[1,2,4]triazolo[3,4-b][1,3]thiazine], the “Inhibition % VIM-5” value in the experiment with VIM-5 was −10 ± 2/– %. Besides, the inhibition at 10 µM is 3% against NDM-1 and 43% at VIM-2. Moreover, the inhibition at 100 µM at NDM-1 stood at 8 ± 1%; on VIM-2, 82 ± 4%; on VIM-1, 61 ± 3%. Moreover, the IC50 at VIM-2 is 53.2 µM; on VIM-1 (10 concentrations in threefold dilution, triplicate, read-out: IC50 against VIM-1), greater than 100 µM.

Consider `CC(C)(C)c1ccc(-c2nnc3n2CCCS3)cc1` [5o, 3-(4-(Tert-butyl)phenyl)-6,7-dihydro-5H-[1,2,4]triazolo[3,4-b][1,3]thiazine], for which, on IMP-1 (10 concentrations in threefold dilution, triplicate, read-out: IC50 against IMP-1), the IC50 is greater than 100 µM. In addition, the inhibition at 10 µM on IMP-1 is 15%; against NDM-1, 9%; at VIM-2 it was 22%. Also, the inhibition at 100 µM was 63 ± 1% on IMP-1, 11 ± 1% at NDM-1, 23 ± 4% at VIM-2 and 27 ± 2% on VIM-1. The “Inhibition % VIM-5” value with VIM-5 is 15 ± 1/– %.

For `Cc1c(-c2nnc3n2CCCS3)cccc1[N+](=O)[O-]` [5p, 3-(2-Methyl-3-nitrophenyl)-6,7-dihydro-5H-[1,2,4]triazolo[3,4-b][1,3]thiazine], the inhibition at 10 µM against IMP-1 is -5%; on NDM-1 it was 22%; against VIM-2 it was 42%. Also, the inhibition at 100 µM against IMP-1 came out at 10 ± 1%; against NDM-1, 16 ± 2%; against VIM-2, 71 ± 6%; against VIM-1, 19 ± 2%. Moreover, the “Inhibition % VIM-5” value with VIM-5 is listed as 15 ± 1/– %. The IC50 on VIM-2 was found to be 53.8 µM.

On to `c1ccc(-c2nnc3n2CCCS3)nc1` [5q, 3-(Pyridin-2-yl)-6,7-dihydro-5H-[1,2,4]triazolo[3,4-b][1,3]thiazine], for which the inhibition at 10 µM at IMP-1 is 3%; at NDM-1, 20%; at VIM-2, 26%. The inhibition at 100 µM against IMP-1 is 9 ± 1%; against NDM-1 it was 11 ± 1%; against VIM-2, 45 ± 1%; against VIM-1 it was 19 ± 1%. For the same compound, the “Inhibition % VIM-5” value with VIM-5 was 14 ± 1/– %.

Regarding `c1ccc(Cc2nnc3n2CCCS3)cc1` [5r, 3-Benzyl-6,7-dihydro-5H-[1,2,4]triazolo[3,4-b][1,3]thiazine], the “Inhibition % VIM-5” value in the experiment with VIM-5 is on record as 8 ± 1/– %. For the same compound, the inhibition at 10 µM against NDM-1 was 9%; at VIM-2 it was 6%. The values for the inhibition at 100 µM at NDM-1, at VIM-2 and on VIM-1 were 4 ± 1%, 21 ± 3% and 25 ± 2%, respectively.

With `Brc1ccc(-c2nnc3n2CCS3)cc1` [5s, 3-(4-Bromophenyl)-5,6-dihydrothiazolo[2,3-c][1,2,4]triazole], the values for the inhibition at 10 µM against IMP-1, against NDM-1 and against VIM-2 were 9%, 29% and 50%, respectively. The inhibition at 100 µM on IMP-1 amounted to 4 ± 1%; on NDM-1, 28 ± 3%; against VIM-2 it was 80 ± 3%; against VIM-1 it was 29 ± 2%. The “Inhibition % VIM-5” value with VIM-5 is 14 ± 2/– %. The IC50 at VIM-2 was determined as 67.2 µM.

Regarding `CC(=O)Nc1ccc(Nc2ccc(-c3nnc4n3CCCS4)cc2)cc1` [5t, N-(4-((4-(6,7-dihydro-5H-[1,2,4]triazolo[3,4-b][1,3]thiazin-3-yl)phenyl)amino)phenyl)acetamide], the “Inhibition % VIM-5” value with VIM-5 was 31 ± 2/– %. Also, on NDM-1, the inhibition at 10 µM is 13% and the inhibition at 100 µM was 23 ± 2%. Also, on VIM-2, the IC50 was greater than 100 µM, the inhibition at 10 µM was 40% and the inhibition at 100 µM amounted to 75 ± 4%. Further, the inhibition at 100 µM against VIM-1 was 14 ± 2%.

For the origin of these results see article PMC6982996, “Discovery of [1,2,4]Triazole Derivatives as New Metallo-β-Lactamase Inhibitors” (Molecules, 2019).
